Results as given in ChEMBL document CHEMBL1156376, “Clathsterol, a novel anti-HIV-1 RT sulfated sterol from the sponge Clathria species” (J Nat Prod, 2001).
Activity calls are given as the source filed them. The rule behind the calls is not given here.

Target: Human immunodeficiency virus type 1 reverse transcriptase (Human immunodeficiency virus 1) (UniProt Q72547)
Test: Inhibition of HIV1 reverse transcriptase at 10 uM

Activity: Active
Structure (SMILES): CCCC(=O)OC(C(CC)C(C)C)C(OC(=O)CCC)[C@@H](C)[C@H]1[C@@H](O)[C@H](OC(C)=O)[C@H]2[C@@H]3CCC4C[C@H](OS(=O)(=O)O)[C@@H](OS(=O)(=O)O)C[C@]4(C)[C@H]3CC[C@@]21C (stereo partly specified)
